Molecular target: T1, PDE6 (Bos taurus, UniProt P11541+P23439)
T1 construct: tissue Tokyo Shibaura Zoki; host or cells: bovine retina, rod outer segments, gel filtration, then limited trypsin treatment
T1 sequence (P11541 2-856 limits assumed): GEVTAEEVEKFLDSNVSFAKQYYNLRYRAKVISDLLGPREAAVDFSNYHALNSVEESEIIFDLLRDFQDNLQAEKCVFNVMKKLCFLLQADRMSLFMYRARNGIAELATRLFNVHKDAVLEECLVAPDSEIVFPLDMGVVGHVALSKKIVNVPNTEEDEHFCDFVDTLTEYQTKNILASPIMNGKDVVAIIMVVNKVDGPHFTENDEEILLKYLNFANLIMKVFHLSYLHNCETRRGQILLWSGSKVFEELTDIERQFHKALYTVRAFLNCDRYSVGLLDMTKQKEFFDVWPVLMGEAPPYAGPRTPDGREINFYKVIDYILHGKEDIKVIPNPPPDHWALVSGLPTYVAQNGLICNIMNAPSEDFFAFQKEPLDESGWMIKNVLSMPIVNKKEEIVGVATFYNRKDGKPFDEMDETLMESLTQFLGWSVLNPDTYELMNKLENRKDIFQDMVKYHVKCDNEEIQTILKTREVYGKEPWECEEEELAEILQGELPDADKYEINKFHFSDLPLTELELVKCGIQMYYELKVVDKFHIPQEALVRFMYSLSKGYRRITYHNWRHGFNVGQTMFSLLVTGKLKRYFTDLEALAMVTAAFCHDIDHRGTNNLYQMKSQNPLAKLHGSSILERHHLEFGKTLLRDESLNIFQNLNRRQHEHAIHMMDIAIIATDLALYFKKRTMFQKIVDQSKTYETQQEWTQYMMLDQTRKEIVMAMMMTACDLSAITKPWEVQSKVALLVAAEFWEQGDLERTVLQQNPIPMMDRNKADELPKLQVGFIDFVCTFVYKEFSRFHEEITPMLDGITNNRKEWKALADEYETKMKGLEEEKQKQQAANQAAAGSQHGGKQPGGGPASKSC
T1 sequence (P23439 2-850 limits assumed): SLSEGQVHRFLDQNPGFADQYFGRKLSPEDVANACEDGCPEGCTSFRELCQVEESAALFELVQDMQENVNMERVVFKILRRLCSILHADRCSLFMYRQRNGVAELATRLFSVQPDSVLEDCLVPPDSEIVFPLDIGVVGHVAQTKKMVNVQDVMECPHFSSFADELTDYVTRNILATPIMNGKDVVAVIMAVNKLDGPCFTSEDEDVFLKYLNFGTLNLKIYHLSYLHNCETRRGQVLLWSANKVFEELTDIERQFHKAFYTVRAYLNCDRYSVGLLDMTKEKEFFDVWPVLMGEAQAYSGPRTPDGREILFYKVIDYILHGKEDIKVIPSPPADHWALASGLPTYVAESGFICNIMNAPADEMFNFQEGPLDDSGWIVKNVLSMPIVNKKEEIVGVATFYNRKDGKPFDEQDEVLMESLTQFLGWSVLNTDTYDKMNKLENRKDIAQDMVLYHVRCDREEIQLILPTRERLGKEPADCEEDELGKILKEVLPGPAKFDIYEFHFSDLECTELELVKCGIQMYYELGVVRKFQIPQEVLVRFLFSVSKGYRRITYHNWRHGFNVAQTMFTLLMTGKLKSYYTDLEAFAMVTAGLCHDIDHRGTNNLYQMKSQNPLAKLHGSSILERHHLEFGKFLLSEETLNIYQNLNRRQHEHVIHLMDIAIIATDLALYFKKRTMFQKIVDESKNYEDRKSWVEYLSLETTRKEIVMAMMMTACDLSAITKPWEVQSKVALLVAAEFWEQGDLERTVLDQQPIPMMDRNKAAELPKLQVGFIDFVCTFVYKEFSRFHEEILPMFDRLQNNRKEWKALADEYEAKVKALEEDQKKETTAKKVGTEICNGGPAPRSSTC
Assay: PDE assay, trypsin-activated PDE6 from bovine retina
Format: biochemical
Conditions: substrate about 12 nM [3H]-cGMP and 10 μM cGMP
Description: From the bovine eyeball, purchased from Tokyo Shibaura Zoki, co., Ltd., retina (pale red colored) which is present as a membrane on the pigmented layer was collected and stored at −70° C.
To buffer A [16 mM MOPS-NaOH, pH7.5, 1.6 mM dithiothreitol, 8 mM magnesium chloride, 96 mM potassium chloride, 48 mM sodium chloride, 0.16 mM phenylmethylsulfonyl fluoride, 10 μM pepstatin A, 10 μM leupeptin] (20 ml), sucrose (6 g) was dissolved. Added thereto was the above-mentioned retina (about 7 g), and the mixture was stirred for 30 minutes while cutting the retina by scissors. The mixture was applied to centrifugation at 2000 rpm, at 4° C. for 5 minutes and the supernatant was collected. To the resultant residue was added buffer B[10 mM MOPS, pH7.5, 1 mM dithiothreitol, 5 mM magnesium chloride, 60 mM potassium chloride, 30 mM sodium chloride, 0.1 mM phenylmethylsulfonyl fluoride, 10 μM pepstatin A, 10 μM leupeptin] (40 ml), and the mixture was stirred by rolling several times. This was applied to centrifugation and the resultant supernatant was combined with the above obtained supernatant. This is further centrifuged at 7000 rpm, at 4° C., for 5 minutes, and the precipitates were obtained as crude rod outer segment (ROS). […]
Further, PDE assay was carried out using the above-eluted fractions as an enzyme solution, and cGMP-hydrolyzing activity was measured. […]

SMILES: COc1ccc(-c2cc(N3CCCC3)nc(/C=C/c3nc(-n4ccnc4)c4ccccc4n3)n2)cc1OC [Compound A, 2-{(E)-2-[4-(1-imidazolyl)-quinazolin-2-yl]}ethenyl-4-(3,4-dimethoxy)phenyl-6-(pyrrolidin-1-yl)pyrimidine]
- IC50: 290 nM

Reference: US8338420B1, “Treatment of Parkinson's disease and enhancement of dopamine signal using PDE 10 inhibitor” (Mitsubishi Tanabe Pharma Corporation, priority 2002, dated 2012)
